Measurements published in article PMC10459118, “The Effect of Plastic-Related Compounds on Transcriptome-Wide Gene Expression on CYP2C19-Overexpressing HepG2 Cells” (Molecules, 2023).

What was measured:
[1] = Resazurin reduction assay (growth inhibition / cytotoxicity); details: human
Description: (§1) To investigate the effects of the in silico identified compounds on cell viability, we used CYP2C19-overexpressing HepG2 cells (Figure 3). Different concentrations (ranging from 0.003 to 100 μM) were tested.
(§2) Figure 3 Resazurin assay of cytochrome P450 2C19-overexpressing HepG2 cells treated with different concentrations of the six selected compounds. All experiments were performed in three replicate measurements of mean ± SD.
(§3) CYP2C19-overexpressing HepG2 cells were originated as previously described. Cells were grown in DMEM medium (DMEM, 31966021, Gibco™, Billings, MT, USA) at 37 °C and 5% CO2 in a humidified incubator. DMEM media were supplemented with 10% fetal bovine serum (FBS) and with 3 μg/mL blasticidin (ant-bl-05, InvivoGen, San Diego, CA, USA) to preserve the selection of transfected CYP2C19-overexpressing HepG2 cells.
(§4) Aliquots of 10^4 CYP2C19-overexpressing HepG2 cells were seeded per well into 96-well plates. Cells were treated with different concentrations of the selected compounds with a range from 0.003 to 100 µM in a total volume of 200 µL for 72 h. Successively, 20 µL/well of resazurin 0.01% w/v (Sigma Aldrich, Taufkirchen, Germany) was added. The fluorescence intensity was measured with an Infinite M200 Pro-plate reader (Tecan, Crailsheim, Germany). Dose–response curves were engendered for three independent experiments for each compound, and 50% inhibition concentrations (IC50) were calculated. The analysis was represented using the […] GraphPad Software (version 9.5.1) (La Jolla, CA, USA).

[2] = system: CYP2C19-overexpressing HepG2 cells; experiment: as above; details: CYP2C19-overexpressing HepG2 cells, 0.003 to 100 μM, 72 h
Description: as §1, §2, §3, §4

[3] = system: CYP2C19-overexpressing HepG2 cells; experiment: RNA sequencing with pathway enrichment analysis; format: cell-based; details: for genes of 'cholesterol biosynthetic process' influenced by only one compound: Venn diagram of compounds 4-6, vs DMSO; for genes of 'DNA replication' pathway exclusively influenced by the compound: Venn diagram of compounds 4 and 6, vs DMSO
Description: Functional enrichment analysis with clusterProfiler was executed using the gene ontology biological process annotation. Finally, with the GeneTonic software (version 2.4.0), a visual summary of the influenced pathways, from here on referred to as 'enriched pathways', was created. […] The size of the dots corresponds to the number of genes in the reference gene set. […] Control cells were treated with 0.2% DMSO. After 24 h of incubation, the cells were harvested. RNA extraction was performed with an […] RNA Mini Kit (Invitek Molecular GmbH, Berlin, Germany) according to the manufacturer's instructions. The cell pellet was lysed with 350 μL of Lysis Solution and treated with β-mercaptoethanol. After DNA removal, 350 μL of 70% ethanol was added, and the sample was applied onto the RNA-RTA spin filter. After several washing steps, RNA was eluted with 60 μL of Elution Buffer R, and the concentration and purity were measured with NanoDrop. RNA sequencing was performed by […] GmbH, Mainz, Germany. The quality of the extracted RNA was verified by the company with a 2100 Bioanalyzer system (Agilent Technologies, Santa Clara, CA, USA). After mRNA isolation and library preparation using a NEBNext^© UltraTM II Directional RNA Library Prep Kit (New England Biolabs, Ipswich, MA, USA), RNA sequencing of around 25 Mio PE reads (2 × 12.5 M reads, 2 × 150 nt) was performed with an Illumina NextSeq 2000TM system. Each treatment and control group included two replicates. The FastQC tool (0.12.0, https://www.bioinformatics.babraham.ac.uk/projects/fastqc/) (accessed 15 February 2023) was used for quality control on the sequencing data. Transcript abundance estimates were computed with Salmon (version 1.5.0) with a transcriptome index generated by GENCODE (version 38) and then summarized to the gene level with the […] package (version 1.16.0). Exploration, modelling, and interpretation of the expression data followed the protocols defined by Ludt et al. […] Exploratory data analysis was performed with the pcaExplorer package (version 2.24.0). […] Accurate estimation of the effect sizes (described as log2-fold changes) was performed using the […] shrinkage estimator (version 1.20.0). Further analyses included gene ontology pathway enrichment by topGO (version 2.50.0) using all expressed genes as a background dataset and the ideal package (version 1.22.0) and by clusterProfiler (version 4.6.0) with default settings and the log2-fold change as the input.

[4] = system: CYP2C19-overexpressing HepG2 cells; format: cell-based
Description: Figure 8 Flow cytometric cell cycle analysis of cytochrome CYP2C19-overexpressing HepG2 cells treated with IC50 concentrations of compounds 4 and 6. The data are represented as mean and SD of three independent experiments. (* p < 0.05, ** p < 0.01, compared to DMSO-treated cells).
CYP2C19-overexpressing HepG2 cells were treated with IC50 concentrations of compounds 4 and 6 for 24 h. Then, the cells were fixed using 80% cold ethanol and stored overnight at −20 °C. Successively, the cells were washed twice with PBS and resuspended in 1 mL of cold PBS containing 1mg/mL RNaseA (Sigma-Aldrich, Taufkirchen, Germany) and 50 μg/mL PI (Sigma-Aldrich, Taufkirchen, Germany). After 15 min of incubation, the measurements were performed using a BD LSRFortessa™ Cell Analyzer (Becton-Dickinson, Heidelberg, Germany). DMSO-treated cells were used as a negative control.

[5] = IC50 concentration, 24 h, vs DMSO

## O=C(OC1CCCCC1)c1ccccc1C(=O)OC1CCCCC1 [compound 1, dicyclohexyl phthalate]
[1]
  IC50 at 72 h: 88 ± 7.77 µM

## CC(C)COC(=O)c1ccccc1C(=O)OCC(C)C [compound 2, diisobutyl phthalate]
[1]
  IC50 at 72 h: > 100 µM
[2]
  cytotoxic effect: did not exhibit any cytotoxic effect

## CC(C)(C)CC(C)(C)c1ccc(O)c(-n2nc3ccccc3n2)c1 [compound 3, octrizole]
[1]
  IC50 at 72 h: 67.5 ± 2.05 µM

## Cc1cc(Cc2cc(C)cc(C(C)(C)C)c2O)c(O)c(C(C)(C)C)c1 [compound 4, 2,2′-methylene bis(6-tert-butyl-4-methylphenol)]
[3]; [5]
  cell death mechanisms 'autophagy' and 'process utilizing autophagic mechanism': activated
  mitosis-related pathways ('mitotic sister chromatid segregation', 'sister chromatid segregation', 'regulation of mitotic sister chromatid separation', 'chromosome organization'): suppressed
  pathway 'DNA replication': suppressed
  pathway 'DNA-templated DNA replication': suppressed
  pathway 'metaphase/anaphase transition of mitotic cell cycle': suppressed
  pathways 'cholesterol metabolic process' and 'sterol metabolic process': suppressed
  pathways 'cytokine production' and 'regulation of cytokine production': activated
[3]
  genes of 'cholesterol biosynthetic process' influenced by only one compound: two
  genes of 'DNA replication' pathway exclusively influenced by the compound: Forty-one
[3]; vs DMSO
  affected genes related to 'regulation of cytokine production': 82 genes
[4]
  G0/G1 population: 74.11 ± 1.98%
  percentage change in the sub-G0 and G2/M phases: No significant percentage change
  percentage of S-phase cells: 8.05 ± 1.92%
[1]
  IC50 at 72 h: 18.6 ± 0.94 µM

## CC(c1cc(C(C)(C)C)cc(C(C)(C)C)c1O)c1cc(C(C)(C)C)cc(C(C)(C)C)c1O [compound 5, 1,1-bis(3,5-di-tert-butyl-2-hydroxyphenyl)ethane]
[3]; [5]
  cell death mechanisms 'autophagy' and 'process utilizing autophagic mechanism': activated
  pathways 'cholesterol metabolic process' and 'sterol metabolic process': suppressed
  pathways 'cytokine production' and 'regulation of cytokine production': activated
  pathways 'steroid biosynthetic process', 'alcohol biosynthetic pathway', 'alcohol metabolic process', 'organic hydroxy compound metabolic process': suppressed
[3]
  genes of 'cholesterol biosynthetic process' influenced by only one compound: three
[3]; vs DMSO
  affected genes related to 'regulation of cytokine production': 80 genes
[1]
  IC50 at 72 h: 18.1 ± 0.68 µM

## Cc1cc(Cc2cc(C)cc(C3CCCCC3)c2O)c(O)c(C2CCCCC2)c1 [compound 6, 2,2′-methylene bis(6-cyclohexyl-4-methylphenol)]
[3]; [5]
  angiogenesis-related pathways 'vasculature development', 'blood vessel morphogenesis', 'blood vessel development': activated
  mitosis-related pathways ('mitotic sister chromatid segregation', 'sister chromatid segregation', 'regulation of mitotic sister chromatid separation', 'chromosome organization'): suppressed
  pathway 'DNA replication': suppressed
  pathway 'inflammatory response': activated
  pathway 'response to nutrients levels': activated
  pathways 'nuclear chromosome segregation', 'mitotic nuclear division', 'chromosome segregation': down-regulated
[3]
  genes of 'cholesterol biosynthetic process' influenced by only one compound: one
  genes of 'DNA replication' pathway exclusively influenced by the compound: nine
[4]
  G0/G1 population: 72.30 ± 1.68%
  percentage change in the sub-G0 and G2/M phases: No significant percentage change
  percentage of S-phase cells: 6.76 ± 3.28%
[1]
  IC50 at 72 h: 20.16 ± 0.06 µM
